Experimental data reported in PubChem BioAssay (NCI).
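All cell lines were grown in 96-well plates and treated with compound for 48 hours. GI50: concentration for 50% inhibition of growth. TGI denotes the concentration required for complete inhibition of growth.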

Legend:
Test in all cases: inhibition of tumour cell growth, NCI panel, 48 h
[1] = tested on: 786-0 renal
[2] = tested on: A498 renal
[3] = tested on: A549 NSCLC
[4] = tested on: ACHN renal
[5] = tested on: CAKI-1 renal
[6] = tested on: CCRF-CEM leukemia
[7] = tested on: COLO 205 colon
[8] = tested on: DLD-1 colon
[9] = tested on: DMS 114 small cell lung
[10] = tested on: HCC-2998 colon
[11] = tested on: HCT-116 colon
[12] = tested on: HCT-15 colon
[13] = tested on: HL-60(TB) leukemia
[14] = tested on: HOP-18 NSCLC
[15] = tested on: HOP-62 NSCLC
[16] = tested on: HOP-92 NSCLC
[17] = tested on: HT29 colon
[18] = tested on: IGROV1 ovarian
[19] = tested on: K-562 leukemia
[20] = tested on: KM12 colon
[21] = tested on: LOX IMVI melanoma
[22] = tested on: LXFL 529 NSCLC
[23] = tested on: M14 melanoma
[24] = tested on: M19-MEL melanoma
[25] = tested on: MALME-3M melanoma
[26] = tested on: MOLT-4 leukemia
[27] = tested on: NCI-H23 lung
[28] = tested on: NCI-H460 lung
[29] = tested on: NCI-H522 lung
[30] = tested on: OVCAR-3 ovarian
[31] = tested on: OVCAR-4 ovarian
[32] = tested on: OVCAR-5 ovarian
[33] = tested on: OVCAR-8 ovarian
[34] = tested on: RPMI-8226 leukemia
[35] = tested on: RXF 393 renal
[36] = tested on: SF-268 CNS
[37] = tested on: SF-295 CNS
[38] = tested on: SF-539 CNS
[39] = tested on: SK-MEL-2 melanoma
[40] = tested on: SK-MEL-28 melanoma
[41] = tested on: SK-MEL-5 melanoma
[42] = tested on: SK-OV-3 ovarian
[43] = tested on: SN12C renal
[44] = tested on: SNB-19 CNS
[45] = tested on: SNB-75 CNS
[46] = tested on: SR leukemia
[47] = tested on: SW-620 colon
[48] = tested on: TK-10 renal
[49] = tested on: U251 CNS
[50] = tested on: UACC-62 melanoma
[51] = tested on: UO-31 renal
[52] = tested on: EKVX NSCLC
[53] = tested on: KM20L2 colon
[54] = tested on: NCI-H226 lung
[55] = tested on: SNB-78 CNS
[56] = tested on: UACC-257 melanoma

Q: How did the TGI [1] turn out when `CC1(CO)OC(n2cnc3c(N)ncnc32)C(O)C1O` (stereo unspecified) was run?
A: > 100 µM

Q: And the TGI [2]?
A: > 100 µM

Q: And the TGI [3]?
A: > 100 µM

Q: What about the TGI [4] of the same compound?
A: > 100 µM

Q: And the TGI [5]?
A: > 100 µM

Q: What about the TGI [6] of the same compound?
A: > 100 µM

Q: What about the TGI [7] of the same compound?
A: > 100 µM

Q: And the TGI [8]?
A: > 100 µM

Q: And the TGI [9]?
A: > 100 µM

Q: What about the TGI [10] of the same compound?
A: > 100 µM

Q: What about the TGI [11] of the same compound?
A: > 100 µM

Q: And the TGI [12]?
A: > 100 µM

Q: And the TGI [13]?
A: > 100 µM

Q: And the TGI [14]?
A: > 100 µM

Q: What about the TGI [15] of the same compound?
A: > 100 µM

Q: What about the TGI [16] of the same compound?
A: > 100 µM

Q: What about the TGI [17] of the same compound?
A: > 100 µM

Q: And the TGI [18]?
A: > 100 µM

Q: And the TGI [19]?
A: > 100 µM

Q: And the TGI [20]?
A: > 100 µM

Q: What about the TGI [21] of the same compound?
A: > 100 µM

Q: And the TGI [22]?
A: > 100 µM

Q: And the TGI [23]?
A: > 100 µM

Q: What about the TGI [24] of the same compound?
A: > 100 µM

Q: And the TGI [25]?
A: > 100 µM

Q: And the TGI [26]?
A: > 100 µM

Q: What about the TGI [27] of the same compound?
A: > 100 µM

Q: And the TGI [28]?
A: > 100 µM

Q: And the TGI [29]?
A: > 100 µM

Q: And the TGI [30]?
A: > 100 µM

Q: And the TGI [31]?
A: > 100 µM

Q: What about the TGI [32] of the same compound?
A: > 100 µM

Q: What about the TGI [33] of the same compound?
A: > 100 µM

Q: And the TGI [34]?
A: > 100 µM

Q: And the TGI [35]?
A: > 100 µM

Q: What about the TGI [36] of the same compound?
A: > 100 µM

Q: What about the TGI [37] of the same compound?
A: > 100 µM

Q: And the TGI [38]?
A: > 100 µM

Q: What about the TGI [39] of the same compound?
A: > 100 µM

Q: And the TGI [40]?
A: > 100 µM

Q: What about the TGI [41] of the same compound?
A: > 100 µM

Q: What about the TGI [42] of the same compound?
A: > 100 µM

Q: What about the TGI [43] of the same compound?
A: > 100 µM

Q: What about the TGI [44] of the same compound?
A: > 100 µM

Q: And the TGI [45]?
A: > 100 µM

Q: And the TGI [46]?
A: > 100 µM

Q: And the TGI [47]?
A: > 100 µM

Q: What about the TGI [48] of the same compound?
A: > 100 µM

Q: And the TGI [49]?
A: > 100 µM

Q: And the TGI [50]?
A: > 100 µM

Q: What about the TGI [51] of the same compound?
A: > 100 µM

Q: For `CC[N-]c1nnnn1CC.[Au+].c1ccc([PH+](c2ccccc2)c2ccccc2)cc1`, which GI50 [1] is on record?
A: 1.37 µM

Q: What about the TGI [1] of the same compound?
A: 2.67 µM

Q: And the GI50 [3]?
A: 4.93 µM

Q: And the TGI [3]?
A: > 53.5 µM

Q: What about the GI50 [4] of the same compound?
A: 1.62 µM

Q: What about the TGI [4] of the same compound?
A: 3.02 µM

Q: And the GI50 [7]?
A: 2.19 µM

Q: And the TGI [7]?
A: 5.4 µM

Q: What about the GI50 [52] of the same compound?
A: 1.7 µM

Q: What about the TGI [52] of the same compound?
A: 4.04 µM

Q: What about the GI50 [10] of the same compound?
A: 1.68 µM

Q: What about the TGI [10] of the same compound?
A: 3.15 µM

Q: What about the GI50 [11] of the same compound?
A: 1.55 µM

Q: What about the TGI [11] of the same compound?
A: 2.9 µM

Q: And the GI50 [13]?
A: 0.187 µM

Q: And the TGI [13]?
A: 0.68 µM

Q: And the GI50 [14]?
A: 1.82 µM

Q: And the TGI [14]?
A: 3.23 µM

Q: What about the GI50 [15] of the same compound?
A: 2.07 µM

Q: And the TGI [15]?
A: 3.72 µM

Q: And the GI50 [18]?
A: 2.26 µM

Q: And the TGI [18]?
A: 5.96 µM

Q: What about the GI50 [19] of the same compound?
A: 0.342 µM

Q: What about the TGI [19] of the same compound?
A: 1.91 µM

Q: And the GI50 [20]?
A: 2.93 µM

Q: What about the TGI [20] of the same compound?
A: 11.6 µM

Q: What about the GI50 [53] of the same compound?
A: 2 µM

Q: And the TGI [53]?
A: 12.9 µM

Q: What about the GI50 [21] of the same compound?
A: 1.45 µM

Q: What about the TGI [21] of the same compound?
A: 2.93 µM

Q: What about the GI50 [22] of the same compound?
A: 0.723 µM

Q: What about the TGI [22] of the same compound?
A: 2.04 µM

Q: What about the GI50 [23] of the same compound?
A: 1.29 µM

Q: And the TGI [23]?
A: 2.79 µM

Q: And the TGI [24]?
A: 4.24 µM

Q: What about the GI50 [25] of the same compound?
A: 1.24 µM

Q: And the TGI [25]?
A: 2.55 µM

Q: What about the GI50 [26] of the same compound?
A: 0.716 µM

Q: What about the TGI [26] of the same compound?
A: 3.74 µM

Q: And the GI50 [54]?
A: 1.44 µM

Q: And the TGI [54]?
A: 3.2 µM

Q: And the GI50 [27]?
A: 1.39 µM

Q: What about the TGI [27] of the same compound?
A: 3.01 µM

Q: What about the GI50 [28] of the same compound?
A: 3.71 µM

Q: And the TGI [28]?
A: > 20.7 µM

Q: And the GI50 [30]?
A: 1.76 µM

Q: And the TGI [30]?
A: 3.15 µM

Q: And the GI50 [32]?
A: 4.5 µM

Q: What about the TGI [32] of the same compound?
A: 9.16 µM

Q: What about the GI50 [33] of the same compound?
A: 1.57 µM

Q: And the TGI [33]?
A: 3.07 µM

Q: What about the GI50 [34] of the same compound?
A: 0.568 µM

Q: What about the TGI [34] of the same compound?
A: 4.48 µM

Q: What about the GI50 [35] of the same compound?
A: 0.242 µM

Q: And the TGI [35]?
A: 0.801 µM

Q: What about the GI50 [37] of the same compound?
A: 3.09 µM

Q: What about the TGI [37] of the same compound?
A: 10 µM

Q: What about the GI50 [38] of the same compound?
A: 2.1 µM

Q: What about the TGI [38] of the same compound?
A: 5.79 µM

Q: What about the GI50 [39] of the same compound?
A: 1.14 µM

Q: What about the TGI [39] of the same compound?
A: 2.39 µM

Q: What about the GI50 [40] of the same compound?
A: 0.677 µM

Q: What about the TGI [40] of the same compound?
A: 2.16 µM

Q: And the GI50 [41]?
A: 0.811 µM

Q: And the TGI [41]?
A: 2.22 µM

Q: And the GI50 [42]?
A: 4.95 µM

Q: What about the TGI [42] of the same compound?
A: 9.98 µM

Q: And the GI50 [43]?
A: 1.65 µM

Q: What about the TGI [43] of the same compound?
A: 3.26 µM

Q: What about the GI50 [44] of the same compound?
A: 1.44 µM

Q: And the TGI [44]?
A: 2.76 µM

Q: What about the GI50 [45] of the same compound?
A: 1.35 µM

Q: What about the TGI [45] of the same compound?
A: 3.46 µM

Q: What about the GI50 [55] of the same compound?
A: 2.5 µM

Q: What about the TGI [55] of the same compound?
A: > 100 µM

Q: What about the GI50 [48] of the same compound?
A: 1.66 µM

Q: And the TGI [48]?
A: 3.07 µM

Q: What about the GI50 [49] of the same compound?
A: 1.96 µM

Q: What about the TGI [49] of the same compound?
A: 6.48 µM

Q: What about the GI50 [56] of the same compound?
A: 1.27 µM

Q: And the TGI [56]?
A: 2.72 µM

Q: And the GI50 [50]?
A: 1.2 µM

Q: What about the TGI [50] of the same compound?
A: 3.18 µM

Q: And the GI50 [51]?
A: 1.66 µM

Q: What about the TGI [51] of the same compound?
A: 3.14 µM
